Read-outs that look alike come from different tables or passages of the source.
Legend:
[1] = biological target: T1, human TTK (Homo sapiens, UniProt P33981); experiment: TTK inhibition assay (indirect ELISA); type: biochemical; conditions: read-out: TTK IC50 Range
T1 construct: amino terminal GST fusion of full length human TTK; purchased Invitrogen
T1 sequence (P33981 1-857): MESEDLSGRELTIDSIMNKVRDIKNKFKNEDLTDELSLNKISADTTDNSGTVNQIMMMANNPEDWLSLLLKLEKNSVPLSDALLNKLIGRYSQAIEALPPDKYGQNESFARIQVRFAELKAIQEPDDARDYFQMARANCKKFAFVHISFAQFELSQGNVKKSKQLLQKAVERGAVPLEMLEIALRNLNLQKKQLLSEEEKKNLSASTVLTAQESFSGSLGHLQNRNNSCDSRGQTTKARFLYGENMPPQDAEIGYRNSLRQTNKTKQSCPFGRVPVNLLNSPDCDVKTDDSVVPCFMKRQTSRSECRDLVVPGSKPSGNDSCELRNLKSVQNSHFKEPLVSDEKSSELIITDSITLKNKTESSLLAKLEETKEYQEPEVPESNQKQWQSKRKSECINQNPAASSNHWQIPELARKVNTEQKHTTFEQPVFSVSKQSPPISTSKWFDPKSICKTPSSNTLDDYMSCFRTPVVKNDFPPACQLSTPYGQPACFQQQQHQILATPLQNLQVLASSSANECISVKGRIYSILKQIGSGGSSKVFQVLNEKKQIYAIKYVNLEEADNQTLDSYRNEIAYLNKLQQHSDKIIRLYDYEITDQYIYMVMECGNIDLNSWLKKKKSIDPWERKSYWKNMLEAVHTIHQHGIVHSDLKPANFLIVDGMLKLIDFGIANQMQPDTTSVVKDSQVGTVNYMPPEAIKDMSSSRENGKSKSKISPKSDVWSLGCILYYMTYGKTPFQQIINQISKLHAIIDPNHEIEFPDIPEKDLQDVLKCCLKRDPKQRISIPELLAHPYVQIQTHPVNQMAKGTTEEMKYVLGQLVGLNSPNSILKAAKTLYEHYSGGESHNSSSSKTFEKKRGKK

[2] = tested on: colon cancer cells (HCT116); experiment: Cancer cell line growth inhibition (SRB assay); type: cell-based; conditions: Homo sapiens, HCT-116, read-out: Cancer Cell Line GI50 Range HCT116
[3] = tested on: ovarian cancer cells (PA-1); experiment: Cancer cell line growth inhibition (SRB assay); type: cell-based; conditions: read-out: Cancer Cell Line GI50 Range PA-1
[4] = tested on: Breast cancer cells; experiment: Cancer cell line growth inhibition (SRB assay); type: cell-based; conditions: Homo sapiens; MDA-MB-468; read-out: Cancer Cell Line GI50 Range MDA-MB-468

| Structure (SMILES) | IC50 [1] | GI50 [2] | GI50 ([3]; Homo sapiens, PA-1) | GI50 [4] | GI50 ([2]; HCT116 colon cancer cells, SRB assay) | GI50 ([3]; PA-1 ovarian cancer cells, SRB assay) |
| --- | --- | --- | --- | --- | --- | --- |
| CN1[C@@H]2CC[C@H]1C[C@@H](Oc1ccc(-c3n[nH]c4ccc(C(=O)NC(c5ccccc5)C(F)F)cc34)cc1)C2 (stereo partly drawn) [Example A227, N-(2,2-difIuoro-1-phenylethyl)-3-(4-(((1R,3R,5S)-8-methyl-8-azabicyclo[3.2.1]octan-3-yl)oxy)phenyl)-1H-indazole-5-carboxamide] | < 100 nM | < 100 nM | 100 to 500 nM | > 500 nM |  |  |
| O=C(N[C@H](c1ccccn1)C1CC1)c1ccc2[nH]nc(-c3ccc4c(c3)C(=O)CCO4)c2c1 [Example A241] | < 100 nM | > 500 nM | > 500 nM | > 500 nM |  |  |
| CN1CCC(=O)c2cc(-c3n[nH]c4ccc(C(=O)N[C@H](c5ccccn5)C5CCCC5)cc34)ccc21 [Example A242, (S)-N-(cyclopentyl(pyridin-2-yl)methyl)-3-(1-methyl-4-oxo-1,2,3,4-tetrahydroquinolin-6-yl)-1H-indazole-5-carboxamide] | < 100 nM | > 500 nM | 100 to 500 nM | > 500 nM |  |  |
| CS(=O)(=O)c1cc(-c2n[nH]c3ccc(C(=O)NC(c4ccccn4)C4CC4)cc23)ccc1OC1CCNCC1 (stereo not shown) [Example A243, N-(cyclopropyl(pyridin-2-yl)methyl)-3-(3-(methylsulfonyl)-4-(piperidin-4-yloxy)phenyl)-1H-indazole-5-carboxamide] | < 100 nM | > 500 nM | > 500 nM | > 500 nM |  |  |
| CN1CCC2(CC1)CC(=O)c1cc(-c3n[nH]c4ccc(C(=O)N[C@H](c5ccccc5)C5CC5)cc34)ccc1O2 [Example A251, (S)-N-(cyclopropyl(phenyl)methyl)-3-(1′-methyl-4-oxospiro[chroman-2,4′-piperidin]-6-yl)-1H-indazole-5-carboxamide] | < 100 nM | 100 to 500 nM | 100 to 500 nM | 100 to 500 nM |  |  |
| CN1C2CCC1CC(Oc1ccc(-c3n[nH]c4ccc(C(=O)N[C@H](c5ccccn5)C5CCCC5)cc34)cc1)C2 (stereo partly drawn) [Example A252, N-((S)-cyclopentyl(pyridin-2-yl)methyl)-3-(4-(((1R,3R,5S)-8-methyl-8-azabicyclo[3.2.1]octan-3-yl)oxy)phenyl)-1H-indazole-5-carboxamide] | < 100 nM | < 100 nM | < 100 nM | < 100 nM |  |  |
| CN1CC2(CC(=O)c3cc(-c4n[nH]c5ccc(C(=O)N[C@H](c6ccccc6)C6CC6)cc45)ccc3O2)C1 [Example A254, (S)-N-(cyclopropyl(phenyl)methyl)-3-(1-methyl-4′-oxospiro[azetidine-3,2′-chroman]-6′-yl)-1H-indazole-5-carboxamide] | < 100 nM | 100 to 500 nM | 100 to 500 nM | > 500 nM |  |  |
| CC(C)[C@H](NC(=O)c1ccc2[nH]nc(-c3ccc4c(c3)C(=O)CC3(CN(C)C3)O4)c2c1)c1ccccc1Cl [Example A255, (S)-N-(1-(2-chlorophenyl)-2-methylpropyl)-3-(1-methyl-4′-oxospiro[azetidine-3,2′-chroman]-6′-yl)-1H-indazole-5-carboxamide] | < 100 nM | 100 to 500 nM | 100 to 500 nM | 100 to 500 nM |  |  |
| O=C(NCC1(CN2CCOCC2)CC1)c1ccc2[nH]nc(-c3ccc(N4CCOCC4)cc3)c2c1 [Example A494, N-((1-(morpholinomethyl)cyclopropyl)methyl)-3-(4-morpholinophenyl)-1H-indazole-5-carboxamide] | < 100 nM |  |  |  | > 500 nM | > 500 nM |
| O=C(NCC1(N2CCOCC2)CCCCC1)c1ccc2[nH]nc(-c3ccc(OC4CCN(C5COC5)CC4)cc3)c2c1 [Example A506, N-((1-morpholinocyclohexyl)methyl)-3-(4-((1-(oxelan-3-yl)piperidin-4-yl)oxy)phenyl)-1H-indazole-5-carboxamide] | < 100 nM | < 100 nM | < 100 nM |  |  |  |
| O=C(N[C@H](c1ccccn1)C1CCCC1)c1ccc2[nH]nc(-c3ccc(N4C5CCC4CC(O)C5)cc3)c2c1 (stereo partly shown) [Example A513] | < 100 nM |  |  | < 100 nM |  |  |
| CC(C)[C@H](NC(=O)c1ccc2[nH]nc(-c3ccc(N4C5CCC4CC(O)C5)cc3)c2c1)c1ccccc1Cl (stereo partly drawn) [Example A514, N-((S)-1-(2-chlorophenyl)-2-methylpropyl)-3-(4-((1R,3R,5S)-3-hydroxy-8-azabicyclo[3.2.1]octan-8-yl)phenyl)-1H-indazole-5-carboxamide] | < 100 nM |  |  | < 100 nM |  |  |

Further lines, results first:

| IC50 [1] | GI50 [2] | GI50 ([3]; Homo sapiens, PA-1) | GI50 [4] | GI50 ([2]; HCT116 colon cancer cells, SRB assay) | GI50 ([3]; PA-1 ovarian cancer cells, SRB assay) | Structure (SMILES) |
| --- | --- | --- | --- | --- | --- | --- |
| < 100 nM | 100 to 500 nM | 100 to 500 nM | 100 to 500 nM |  |  | CC(C)(O)CN1CCC(Oc2ccc(-c3n[nH]c4ccc(C(=O)N[C@H](c5ccsc5)C5CC5)cc34)cc2)CC1 [Example A218, (S)-N-(cyclopropyl(thiophen-3-yl)methyl)-3-(4-((1-(2-hydroxy-2-methylpropyl)piperidin-4-yl)oxy)phenyl)-1H-indazole-5-carboxamide] |
| < 100 nM | 100 to 500 nM | 100 to 500 nM | > 500 nM |  |  | O=C(N[C@H](c1ccsc1)C1CC1)c1ccc2[nH]nc(-c3ccc(OC4CCN(C[C@@H](O)C(F)(F)F)CC4)cc3)c2c1 [Example A223, N-((S)-cyclopropyl(thiophen-3-yl)methyl)-3-(4-((1-((R)-3,3,3-trifluoro-2-hydroxypropyl)piperidin-4-yl)oxy)phenyl)-1H-indazole-5-carboxamide] |
| < 100 nM | 100 to 500 nM | 100 to 500 nM | > 500 nM |  |  | O=C(N[C@@H](c1ccsc1)C1CC1)c1ccc2[nH]nc(-c3ccc(OC4CCN(C[C@@H](O)C(F)(F)F)CC4)cc3)c2c1 [Example A224, N-((R)-cyclopropyl(thiophen-3-yl)methyl)-3-(4-((1-((R)-3,3,3-trifluoro-2-hydroxypropyl)piperidin-4-yl)oxy)phenyl)-1H-indazole-5-carboxamide] |
| < 100 nM | < 100 nM | < 100 nM | 100 to 500 nM |  |  | O=C(N[C@H](c1ccccn1)C1CC1)c1ccc2[nH]nc(-c3ccc(OC4CCN(C[C@@H](O)C(F)(F)F)CC4)cc3)c2c1 [Example A225, N-((S)-cyclopropyl(pyridin-2-yl)methyl)-3-(4-((1-((R)-3,3,3-trifluoro-2-hydroxypropyl)piperidin-4-yl)oxy)phenyl)-1H-indazole-5-carboxamide] |
| < 100 nM | 100 to 500 nM | 100 to 500 nM | 100 to 500 nM |  |  | O=C(N[C@H](c1ccccn1)C1CCCC1)c1ccc2[nH]nc(-c3ccc(OC4CCN(C[C@@H](O)C(F)(F)F)CC4)cc3)c2c1 [Example A229, N((S)-cyclopentyl(pyridin-2-yl)methyl)-3-(4-((1-((R)-3,3,3-trifluoro-2-hydroxypropyl)piperidin-4-yl)oxy)phenyl)-1H-indazole-5-carboxamide] |
| < 100 nM | > 500 nM | > 500 nM | > 500 nM |  |  | CC1(C)CC(=O)c2cc(-c3n[nH]c4ccc(C(=O)N[C@H](c5ccccn5)C5CC5)cc34)ccc2O1 [Example A236, (S)-N-(cyclopropyl(pyridin-2-yl)methyl)-3-(2,2-dimethyl-4-oxochroman-6-yl)-1H-indazole-5-carboxamide] |
| < 100 nM | > 500 nM | > 500 nM | > 500 nM |  |  | CC1=CC(C)(C)Oc2ccc(-c3n[nH]c4ccc(C(=O)N[C@H](c5ccccn5)C5CC5)cc34)cc21 [Example A237, (S)-N-(cyclopropyl(pyridin-2-yl)methyl)-3-(2,2,4-trimethyl-2H-chromen-6-yl)-1H-indazole-5-carboxamide] |
| < 100 nM | 100 to 500 nM | 100 to 500 nM | > 500 nM |  |  | Cc1cc(=O)n(C)c2ccc(-c3n[nH]c4ccc(C(=O)N[C@H](c5ccccn5)C5CC5)cc34)cc12 [Example A238] |
| < 100 nM | > 500 nM | > 500 nM | > 500 nM |  |  | Cc1cc(=O)n(C)c2ccc(-c3n[nH]c4ccc(C(=O)N[C@H](c5ccccn5)C5CCCC5)cc34)cc12 [Example A239, (S)-N-(cyclopentyl(pyridin-2-yl)methyl)-3-(1,4-dimethyl-2-oxo-1,2-dihydroquinolin-6-yl)-1H-indazole-5-carboxamide] |
| < 100 nM | > 500 nM | > 500 nM | > 500 nM |  |  | Cn1ccc(=O)c2cc(-c3n[nH]c4ccc(C(=O)N[C@H](c5ccccn5)C5CCCC5)cc34)ccc21 [Example A240, (S)-N-(cyclopentyl(pyridin-2-yl)methyl)-3-(1-methyl-4-oxo-1,4-dihydroquinolin-6-yl)-1H-indazole-5-carboxamide] |
